What was measured:
[1] = Inhibition of IGF-I stimulated MCF-7 human breast tumor cell proliferation
[2] = Inhibition of IGF-II stimulated MCF-7 human breast tumor cell proliferation

- IC50 [1]: 2.9 µM
- IC50 [2]: 3.2 µM
Compound: COc1cc(/C=C(\C#N)c2ccccn2)ccc1O
